Data on 5 compounds can be found in publication PMC11317148, “DNA-controlled protein fluorescence: Design of aptamer-split peptide hetero-modulator for GFP to respond to intracellular ATP levels” (Nucleic Acids Research, 2024).

Experiment [1] concerns tripartite split-GFP (ipGFP1-9). As to the kind of experiment: ATP-mediated in vitro reconstitution of tripartite split-GFP (ssAPC + ipGFP1-9), fluorescence time course. Particulars: 10 mM of each nucleotide, 12 h incubation. Type of experiment: biochemical. On the procedure:
We prepared a 50 μL mixture containing 1 μM aptamer-peptide complex and 20 μM ipGFP1-9 in ATP binding buffer (ATPBB; 20 mM Tris, 300 mM NaCl and 5 mM MgCl2, pH 7.4). These mixtures were transferred to a 384-well black microplate (Greiner Bio One, Kremsmünster, Austria) and challenged with various concentrations of ATP (2–10 mM). Fluorescence intensities were measured over a time course of 20 h at 5 min intervals using the extended mode of Cytation 7 (BioTek, Winooski, VT, USA) with excitation/emission wavelengths of 488/525 nm.
To assess the functionality of the aptamer-split peptide conjugate for GFP function modulation, we performed a time-course in vitro reconstitution assay with ssAPC and split GFP1-9 in the presence of varying concentrations of ATP (Figure 2A). Our group previously reported an in vitro reconstitution application using intein-mediated purified split GFP1-9 (ipGFP1-9) with improved solubility and expression levels to provide evidence of compatibility for application in this study ([28]). […] In the absence of ATP, we observed a modest background signal that could yield a false-positive result at earlier time-points (Figure 2A, dark gray trace), although this could readily be distinguished as a negative result relative to ATP-containing samples at later time-points. […] As aforementioned, according to Kang et al., the performance of this ATP aptamer has been proven by measuring EC50 values in terms of ATP-induced structure-switching with different lengths of antisense DNAs (11–18 nt) ([27]).
We also verified the specificity of our system towards ATP as a trigger molecule by assessing its response to other nucleotides such as UTP, GTP and CTP under identical conditions. To validate the low false-positive rate of self-assembly or non-specific binding, we compared the recovered fluorescence intensities after 12 h of incubation with 10 mM of each nucleotide.
We subsequently evaluated the performance of our system in the context of sustained responsiveness to environmental ATP changes. We conducted an experiment in which we measured fluorescence intensity over time while adding extra ATP in 2 mM increments every 120 min, up to a final concentration of 10 mM.
To verify that the fluorescence signal resulted from ATP-induced structure-switching, we performed experiments with the aptamer-modulated split GFP, in which we included an inhibitory strand that was fully complementary to the ATP aptamer sequence. We first performed an assembly reaction with the ssAPC, ipGFP1-9, and ATP for 12 h to generate a strong fluorescent signal, after which we added the inhibitory strand at varying molar ratios relative to the ssAPC ranging from 1:5 to 1:20 (Figure 2D).

Experiment [2] has as its system A549 human lung carcinoma cells. As to the kind of experiment: Live-cell imaging of the aptamer-modulated split GFP response to intracellular ATP. Type of experiment: cell-based. Particulars: cells treated with ssAPC/ipGFP1-9 and Oligomycin A, compared to untreated controls. How it is done:
A549 human lung carcinoma cells were obtained from the Korean Cell Line Bank (Seoul, South Korea). The cells were cultured at 37°C and 5% CO2 in DMEM containing 10% FBS (v/v) and penicillin/streptomycin (Thermo Fisher Scientific, Waltham, MA, USA). A549 cells were seeded at a density of 1 × 10^4 cells/well in 96-well cell culture black plates (Greiner Bio One, Kremsmünster, Austria). After 24 h, the cells were transfected with naïve GFP, ipGFP1-9, and aptamer-peptide complexes using Lipofectamine 3000 (Thermo Fisher Scientific, Waltham, MA, USA) according to the manufacturer's instructions. The cells were imaged using the Cytation 7 Cell Imaging Multi-Mode Reader (BioTek Instruments, Winooski, VT, USA) with excitation/emission wavelengths of 488/525 nm for 24 h under cultivation conditions with 5% CO2 at 37°C. Images were analyzed using ImageJ software (https://imagej.nih.gov).
For starvation experiments, A549 cells were seeded at a density of 1 × 10^6 cells/dish in 100 mm^2 cell culture dishes. After incubation for 24 h, the medium was changed to DMEM without glucose. […] Intracellular ATP concentrations were measured using an ATP assay kit (Abcam, Cambridge, MA, USA) according to the manufacturer's instructions.
Finally, we assessed the functionality of aptamer-modulated split GFP to respond to intracellular ATP levels via the reassembly within cells. […]

`Nc1nc2c(ncn2[C@@H]2O[C@H](COP(=O)(O)OP(=O)(O)OP(=O)(O)O)[C@@H](O)[C@H]2O)c(=O)[nH]1` [GTP]: the “fluorescence recovery of ssAPC/ipGFP1-9 assembly by nucleotide (specificity)” value in experiment [1] is listed as “minimal response”. Consider `Nc1ncnc2c1ncn2[C@@H]1O[C@H](COP(=O)(O)OP(=O)(O)OP(=O)(O)O)[C@@H](O)[C@H]1O` [ATP], for which, in experiment [1], the “fluorescence recovery of ssAPC/ipGFP1-9 assembly by nucleotide (specificity)” value was “highly ATP-specific”. As to `O=c1ccn([C@@H]2O[C@H](COP(=O)(O)OP(=O)(O)OP(=O)(O)O)[C@@H](O)[C@H]2O)c(=O)[nH]1` [UTP], the “fluorescence recovery of ssAPC/ipGFP1-9 assembly by nucleotide (specificity)” value in experiment [1] was “minimal response”. Still for that read-out and setting: as for `Nc1ccn([C@@H]2O[C@H](COP(=O)(O)OP(=O)(O)OP(=O)(O)O)[C@@H](O)[C@H]2O)c(=O)n1` [CTP], the entry is “minimal response”. As to Oligomycin A, the “intensity of green fluorescence of ssAPC/ipGFP1-9 after ATP depletion” value in experiment [2] is “conspicuous decrease”.
